Four compounds from patent US20060110804A1, “Method of treating an organ for transplantation” (priority 2004, published 2006) can be followed below.

Series [1] relates to liver grafts. The experiment in a line: Bile salts and phospholipids in bile of ex vivo reperfused liver grafts (enzyme inhibition assay). Also on record: species or system rat. The settings on record: hemin-treated C16 grafts, 30 minute reperfusion, concentration of 5 μmol/L or less. The method, then: To examine whether bilirubin and/or CO could recover the HO-1-inducing effect inhibited by ZnPP, a strong HO activity inhibitor, the following experiment was carried out. The grafts were reperfused with carbogen-saturated Krebs-Henseleit buffer (pH 7.4, 37° C.) supplemented with bilirubin (Sigma Chemical, Co.) and/or CO in combination with 1 μmol/L ZnPP. […] The total amounts of bile salts and phospholipids in bile samples were measured by enzyme inhibition assay according to a reported method (see Document 23).
An attempt was made to examine dose-dependent effects of bilirubin and/or CO during co-perfusion. […] After being cold-preserved for 16 hours, the hemin-treated grafts were reperfused for 30 minutes in the presence of ZnPP using reperfusate containing various concentrations of bilirubin and/or CO, and then measured for the levels of bile output, bile salts and phospholipids in bile from the grafts, which were determined in percentages relative to those obtained by reperfusion in the absence of ZnPP.

In series [2] the test system is liver grafts. The experiment in a line: Bile output of cold-preserved liver grafts during ex vivo reperfusion. On the set-up: species or system rat. The conditions noted are these: for bile output: hemin-treated grafts, 16-hour cold preservation, reperfused with 1 μmol/L of the protoporphyrin; for bile output vs bilirubin-free control: hemin-untreated C16 grafts, 5 μmol/L bilirubin.
Method: The rats injected with hemin or physiological saline were anesthetized by intraperitoneal injection of pentobarbital sodium (40 mg/kg body weight) and a PE-10 catheter for bile sample collection was inserted into the common bile duct of each rat. A 16-gauge catheter was inserted into the portal vein and 20 ml lactated Ringer's solution kept at 4° C. was passed through the catheter. Subsequently, rat livers were perfused with 20 ml University of Wisconsin solution (UW solution) of 4° C., excised and then preserved in the same solution at 4° C. for 16 hours. […] After cold preservation for 16 hours, each liver graft was reperfused via the portal vein with 95% oxygen-5% carbon dioxide-saturated Krebs-Henseleit buffer (pH 7.4, 37° C.) at 4 ml/min/g liver in the presence of 30 μmol/L sodium taurocholate (see Document 4).
In the hemin-treated liver grafts from Example 1, after 16-hour cold preservation (Hemin/C16), bile samples were collected from the common bile duct every 5 minutes during 40 minute reperfusion. […] The hemin-untreated grafts receiving no cold preservation (Control) and 16-hour cold preservation (C16) were also provided for the same measurement.
The grafts were reperfused with carbogen-saturated Krebs-Henseleit buffer (pH 7.4, 37° C.) supplemented with bilirubin (Sigma Chemical, Co.) and/or CO in combination with 1 μmol/L ZnPP. […] Similarly, hemin-untreated (a) and hemin-treated (b) grafts were provided in the absence of ZnPP for use as controls.
The same experiment as described in Example 4 was repeated, except that the doses of bilirubin and/or CO were varied. After being cold-preserved for 16 hours, the hemin-treated grafts were reperfused for 30 minutes in the presence of ZnPP using reperfusate containing various concentrations of bilirubin and/or CO, and then measured for the levels of bile output, bile salts and phospholipids in bile from the grafts, which were determined in percentages relative to those obtained by reperfusion in the absence of ZnPP.

The test system of series [3] is liver grafts. The experiment in a line: Bilirubin-IXα concentration in bile of ex vivo reperfused liver grafts (ELISA, antibody 24G7). Also on record: species or system rat. The conditions noted are these: hemin-treated C16 grafts, co-perfusion with 1 μmol/L ZnPP compared to CuPP. The method, then: The rats injected with hemin or physiological saline were anesthetized by intraperitoneal injection of pentobarbital sodium (40 mg/kg body weight) and a PE-10 catheter for bile sample collection was inserted into the common bile duct of each rat. A 16-gauge catheter was inserted into the portal vein and 20 ml lactated Ringer's solution kept at 4° C. was passed through the catheter. Subsequently, rat livers were perfused with 20 ml University of Wisconsin solution (UW solution) of 4° C., excised and then preserved in the same solution at 4° C. for 16 hours. Since acute oxidative stress would eventually occur, as judged by intracellular hydroperoxide production which occurred concurrently with a reduction of bile formation, a time period of 16 hours was selected for preservation purposes. […]
In the hemin-treated liver grafts from Example 1, after 16-hour cold preservation (Hemin/C16), bile samples were collected from the common bile duct every 5 minutes during 40 minute reperfusion. The bile samples collected at 30 minutes after initiation of reperfusion were also measured for their bilirubin-IXα concentration by enzyme-linked immunosorbent assay detection using the monoclonal antibody 24G7 capable of recognizing both conjugated and unconjugated bilirubin fractions, as described in earlier documents (see Documents 21 and 22). […]

The test system of series [4] is liver grafts. The experiment in a line: LDH released into hepatic venous perfusate of ex vivo reperfused liver grafts (liver cell damage). Also on record: species or system rat. The method, then:
As in the case of Example 5, after being cold-preserved for 16 hours, the hemin-treated grafts were reperfused for 30 minutes in the presence of ZnPP using reperfusate containing varying concentrations of bilirubin, and then measured for the amount of lactate dehydrogenase (LDH) released into the hepatic venous perfusate, which was indicative of liver cell damage in the grafts. For use as controls, hemin-untreated grafts receiving 16-hour cold preservation (C16) and hemin-treated grafts receiving 16-hour cold preservation (Hemin/C16) were provided in the absence of ZnPP. The amount of LDH was measured as described in an earlier document (see Document 24). […] The grafts were divided into the following test groups: (a) receiving 5 minute reperfusion with the bilirubin-containing buffer and subsequent 35 minute reperfusion in the absence of bilirubin, (b) receiving 15 minute reperfusion with the bilirubin-containing buffer and subsequent 25 minute reperfusion in the absence of bilirubin, and (c) receiving 40 minute perfusion with the bilirubin-containing buffer. As a control group (d), the cold-preserved grafts received only bilirubin-free perfusion for 40 minutes. Bile output was then measured over time for each group. Further, FIGS. 6(B) and (C) show the relationship between reperfusion time with the bilirubin-containing buffer and bile output from the grafts and the relationship between reperfusion time and venous LDH concentration, respectively.

The subject of series [5] is liver grafts. The experiment in a line: Liver isograft transplantation model: bile output after initiation of reperfusion. Format: in vivo, rat. The settings on record: grafts washed with Ringer's solution containing a higher concentration of bilirubin than 5 to 10 μmol/L. The method, then: (§1) To examine in vivo effects of HO-1 preconditioning, a model experiment for liver isograft transplantation was carried out. Male inbred Lewis rats of 220-280 g were allowed to drink water without any restriction, fasted for 24 hours before the experiment, and provided for use as donors and recipients for liver transplantation. In HO-1 preconditioning groups, the rats were hemin-treated at 18 hours before graft preparation in the same manner as used in the ex vivo experiment of Example 1. Liver transplantation was performed according to the technique developed by Kamada (see Document 25) with minor modifications. More specifically, the donors were anesthetized by intraperitoneal injection of pentobarbital sodium (40 mg/kg body weight) and then laparotomized. […]
(§2) In light of Example 7 showing that short-term washing with bilirubin was effective for recovery of post-reperfusion stasis and cell injury in the liver grafts cold-preserved for 16 hours, further attempts were made to examine the in vivo effect of bilirubin washing against post-transplantation injury in the cold-preserved grafts. […] The level of bile output was measured at 30 minutes and 24 hours after initiation of reperfusion. To determine the degree of graft injury at 24 hours after initiation of reperfusion, blood levels of aspartate aminotransferase (AST), alanine aminotransferase (ALT) and LDH were measured in a standard manner. […]

The test system of series [6] is liver grafts. The experiment in a line: Liver isograft transplantation model: blood levels of AST, ALT and LDH (graft injury). The class given is in vivo, rat. The conditions noted are these: washing with irrigation solution containing a higher concentration of bilirubin than 5 to 10 μmol/L. The procedure: as §1, §2
The subject of series [7] is liver grafts. The class given is in vivo. The settings on record: grafts washed with 50 μmol/L bilirubin-containing Ringer's solution. The method, then:
as §1, §2

Another series deals with liver parenchymal cells. The experiment in a line: Immunohistological detection of bilirubin in graft tissue with monoclonal antibody 24G7. The class given is in vivo, rat. The method, then:
To examine the effect of bilirubin washing on the accessibility of bilirubin to graft tissues, immunohistological detection of bilirubin was performed using the anti-bilirubin-IXα monoclonal antibody 24G7 according to a previously reported method of the inventors (see Document 27). As observed in the grafts perfused with bilirubin-free lactated Ringer's solution (A), the monoclonal antibody 24G7 triggered an immune reaction primarily in liver non-parenchymal cells including Kupffer cells.

Entries after “also recorded” stand apart in the source; their conditions may differ.

`[C-]#[O+]` [CO, carbon monoxide]: in the series with liver grafts [1], the “percentage of bile salts in bile relative to reperfusion in the absence of ZnPP” value is “no recovery” and the “percentage of phospholipids in bile relative to reperfusion in the absence of ZnPP” value is “no recovery”. In the series with liver grafts [2] (hemin-treated C16 grafts, 30 minute co-perfusion, 1 μmol/L ZnPP, 5 μmol/L of each test substance), the “recovery of ZnPP-induced reduction of bile output” value was “could not achieved”. Further, the “percentage of bile output relative to reperfusion in the absence of ZnPP” value in the series on liver grafts [2] (hemin-treated C16 grafts, ZnPP, 30 minute reperfusion, concentration of 5 μmol/L or less) is “no recovery”.

`C=CC1=C(C)c2cc3[n-]c(cc4[n-]c(cc5nc(cc1n2)C(C)=C5C=C)c(C)c4CCC(=O)O)c(CCC(=O)O)c3C.[Zn+2]` [ZnPP, zinc protoporphyrin-IX]: the bile output entry with liver grafts [2] was “reduced bile output; also recorded: canceled the effect of hemin treatment”. In addition, the “bilirubin levels in bile” value with liver grafts [3] is reported as “significant decrease”. For the same compound, in the series with liver grafts [4], the “venous LDH release” value was “significantly increased”.

As for `C=CC1=C(C)/C(=C/c2[nH]c(Cc3[nH]c(/C=C4\NC(=O)C(C)=C4C=C)c(C)c3CCC(=O)O)c(CCC(=O)O)c2C)NC1=O` [bilirubin], the “adverse effect on bile secretion or cell survival” value in the series with liver grafts [2] (hemin-treated C16 grafts, 30 minutes, 5 μmol/L bilirubin in the presence of ZnPP) is given as “no adverse effect”. Moreover, the “bile output vs bilirubin-free control” value in the series on liver grafts [2] (15 minute reperfusion then 25 minutes without bilirubin) and with liver grafts [2] (40 minute perfusion) was “significant decrease” each time. Further, the “bile output after transplantation” value in the series on liver grafts [5] is “cholestasis occurred”. The “cell injury (sAST, sALT, sLDH) at 24 hours after transplantation” value in the series on liver grafts [6] was “exacerbation of cell injury”. In the series with liver grafts [4] (hemin-untreated C16 grafts, prolonged reperfusion with 5 μmol/L bilirubin-containing buffer), the “LDH release (graft damage)” value is on record as “increases in LDH release”. Besides, the “rats able to survive for 24 hours after transplantation” value with liver grafts [7] is “None”. Further, the “accessibility of bilirubin to liver parenchymal cells (immune reaction)” value in the series with liver parenchymal cells (grafts washed with bilirubin-containing Ringer's solution) is “highly absorbed into liver parenchymal cells”; in the series with liver parenchymal cells (grafts washed with bilirubin-containing Ringer's solution supplemented with PPF), “accessibility of bilirubin was canceled”.

Turning to copper protoporphyrin-IX [CuPP], the bile output result with liver grafts [2] is reported as “substantially the same bile output”.
